Measured values published in ChEMBL document CHEMBL5528002, “Identification of selective 5-LOX and FLAP inhibitors as novel anti-inflammatory agents by ligand-based virtual screening” (Eur J Med Chem, 2024).
Calls of active or inactive are those of the source. The rule behind the calls is not given here.

Columns and labels:
[1] = tested on: Macrophage cell line; assay: Effect on lipid mediator formation in human M1-like phenotype MDM cells by measuring 4-HDHA formation at 10 uM pre-incubated for 15 mins followed by SACM stimulation and measured after 90 mins by UPLC-MS/MS analysis relative to control; assay type: functional; conditions: time 105 min, 1.75 h
[2] = tested on: Macrophage cell line; assay: Effect on lipid mediator formation in human M2-like phenotype MDM cells by measuring DHA formation at 10 uM pre-incubated for 15 mins followed by SACM stimulation and measured after 90 mins by UPLC-MS/MS analysis (reference value: 50400 +/- 3051 pg/ml); assay type: functional; conditions: time 105 min, 1.75 h
[3] = tested on: Macrophage cell line; assay: Effect on lipid mediator formation in human M1-like phenotype MDM cells by measuring 5-HETE formation at 10 uM pre-incubated for 15 mins followed by SACM stimulation and measured after 90 mins by UPLC-MS/MS analysis (reference value: 5357 +/- 1561 pg/ml); assay type: functional; conditions: time 105 min, 1.75 h
[4] = tested on: Macrophage cell line; assay: Effect on lipid mediator formation in human M1-like phenotype MDM cells by measuring arachidonic acid formation at 10 uM pre-incubated for 15 mins followed by SACM stimulation and measured after 90 mins by UPLC-MS/MS analysis (reference value: 69242 +/- 58 pg/ml); assay type: functional; conditions: time 105 min, 1.75 h
[5] = Antioxidant activity assessed as DPPH radical scavenging activity at 10 uM incubated for 30 min by DPPH assay; assay type: functional
[6] = tested on: Macrophage cell line; assay: Effect on lipid mediator formation in human M1-like phenotype MDM cells by measuring PGF2alpha formation at 10 uM pre-incubated for 15 mins followed by SACM stimulation and measured after 90 mins by UPLC-MS/MS analysis (reference value: 471 +/- 100 pg/ml); assay type: functional; conditions: time 105 min, 1.75 h
[7] = tested on: Macrophage cell line; assay: Effect on lipid mediator formation in human M2-like phenotype MDM cells by measuring RvD5 formation at 10 uM pre-incubated for 15 mins followed by SACM stimulation and measured after 90 mins by UPLC-MS/MS analysis relative to control; assay type: functional; conditions: time 105 min, 1.75 h
[8] = tested on: Macrophage cell line; assay: Effect on lipid mediator formation in human M2-like phenotype MDM cells by measuring 5,15-diHETE formation at 10 uM pre-incubated for 15 mins followed by SACM stimulation and measured after 90 mins by UPLC-MS/MS analysis relative to control; assay type: functional; conditions: time 105 min, 1.75 h
[9] = tested on: Macrophage cell line; assay: Effect on lipid mediator formation in human M1-like phenotype MDM cells by measuring PGE2 formation at 10 uM pre-incubated for 15 mins followed by SACM stimulation and measured after 90 mins by UPLC-MS/MS analysis (reference value: 1789 +/- 871 pg/ml); assay type: functional; conditions: time 105 min, 1.75 h
[10] = tested on: Macrophage cell line; assay: Effect on lipid mediator formation in human M2-like phenotype MDM cells by measuring 5S,6R-diHETE formation at 10 uM pre-incubated for 15 mins followed by SACM stimulation and measured after 90 mins by UPLC-MS/MS analysis (reference value: 206 +/- 47 pg/ml); assay type: functional; conditions: time 105 min, 1.75 h
[11] = tested on: Macrophage cell line; assay: Effect on lipid mediator formation in human M1-like phenotype MDM cells by measuring TXB2 formation at 10 uM pre-incubated for 15 mins followed by SACM stimulation and measured after 90 mins by UPLC-MS/MS analysis (reference value: 8866 +/- 2561 pg/ml); assay type: functional; conditions: time 105 min, 1.75 h
[12] = tested on: Macrophage cell line; assay: Effect on lipid mediator formation in human M1-like phenotype MDM cells by measuring DHA formation at 10 uM pre-incubated for 15 mins followed by SACM stimulation and measured after 90 mins by UPLC-MS/MS analysis relative to control; assay type: functional; conditions: time 105 min, 1.75 h
[13] = tested on: Macrophage cell line; assay: Effect on lipid mediator formation in human M1-like phenotype MDM cells by measuring 7-HDHA formation at 10 uM pre-incubated for 15 mins followed by SACM stimulation and measured after 90 mins by UPLC-MS/MS analysis relative to control; assay type: functional; conditions: time 105 min, 1.75 h
[14] = tested on: Macrophage cell line; assay: Effect on lipid mediator formation in human M2-like phenotype MDM cells by measuring arachidonic acid formation at 10 uM pre-incubated for 15 mins followed by SACM stimulation and measured after 90 mins by UPLC-MS/MS analysis (reference value: 92007 +/- 4892 pg/ml); assay type: functional; conditions: time 105 min, 1.75 h
[15] = tested on: Macrophage cell line; assay: Effect on lipid mediator formation in human M1-like phenotype MDM cells by measuring LTB4 formation at 10 uM pre-incubated for 15 mins followed by SACM stimulation and measured after 90 mins by UPLC-MS/MS analysis (reference value: 1413 +/- 452 pg/ml); assay type: functional; conditions: time 105 min, 1.75 h
[16] = tested on: Macrophage cell line; assay: Effect on lipid mediator formation in human M2-like phenotype MDM cells by measuring RvD1 formation at 10 uM pre-incubated for 15 mins followed by SACM stimulation and measured after 90 mins by UPLC-MS/MS analysis relative to control; assay type: functional; conditions: time 105 min, 1.75 h
[17] = tested on: Macrophage cell line; assay: Effect on lipid mediator formation in human M1-like phenotype MDM cells by measuring PGD2 formation at 10 uM pre-incubated for 15 mins followed by SACM stimulation and measured after 90 mins by UPLC-MS/MS analysis (reference value: 46 +/- 15 pg/ml); assay type: functional; conditions: time 105 min, 1.75 h
[18] = target: T1, Bifunctional epoxide hydrolase 2 (Homo sapiens) (UniProt P34913); assay: Inhibition of human sEH at 10 uM relative to control
T1 sequence (whole entry): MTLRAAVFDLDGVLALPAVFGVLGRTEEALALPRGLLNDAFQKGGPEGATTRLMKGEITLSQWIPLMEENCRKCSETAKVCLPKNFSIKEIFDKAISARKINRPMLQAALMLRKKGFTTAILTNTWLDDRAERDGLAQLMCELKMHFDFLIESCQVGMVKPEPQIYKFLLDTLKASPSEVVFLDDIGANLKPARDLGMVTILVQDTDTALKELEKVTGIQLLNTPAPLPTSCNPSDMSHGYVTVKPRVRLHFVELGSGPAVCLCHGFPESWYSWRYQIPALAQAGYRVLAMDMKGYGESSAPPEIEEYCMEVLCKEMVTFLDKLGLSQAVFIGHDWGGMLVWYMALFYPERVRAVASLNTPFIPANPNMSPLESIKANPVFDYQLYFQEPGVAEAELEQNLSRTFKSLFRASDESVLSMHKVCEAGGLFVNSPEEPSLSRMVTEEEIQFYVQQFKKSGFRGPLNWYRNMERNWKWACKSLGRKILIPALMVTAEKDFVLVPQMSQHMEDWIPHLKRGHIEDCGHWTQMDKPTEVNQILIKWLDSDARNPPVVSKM

COc1ccc(C2=C/C(=C/c3ccc(O)cc3O)C(=O)O2)cc1
Activity [1]: 80% | Activity [2]: 53610 pg/mL | Activity [3]: 361 pg/mL | Activity [4]: 80565 pg/mL | Activity [5]: inactive | Activity [6]: 419 pg/mL | Activity [7]: 167% | Activity [8]: 39% | Activity [9]: 1656 pg/mL | Activity [10]: 8 pg/mL | Activity [11]: 8338 pg/mL | Activity [12]: 108% | Activity [13]: 31% | Activity [14]: 94519 pg/mL | Activity [15]: 115 pg/mL | Activity [16]: 114% | Activity [17]: 72 pg/mL | inhibition [18]: > 35%

Oc1ccc(CCC2CCC(c3ccc(O)cc3)CO2)cc1 (stereo unspecified)
Activity [1]: 75% | Activity [2]: 53713 pg/mL | Activity [3]: 695 pg/mL | Activity [4]: 74786 pg/mL | Activity [5]: inactive | Activity [6]: 331 pg/mL | Activity [7]: 105% | Activity [8]: 61% | Activity [9]: 1236 pg/mL | Activity [10]: 14 pg/mL | Activity [11]: 8319 pg/mL | Activity [12]: 94% | Activity [13]: 38% | Activity [14]: 103809 pg/mL | Activity [15]: 79 pg/mL | Activity [16]: 82% | Activity [17]: 40 pg/mL | inhibition [18]: > 35%
